Measurements as given in US10624972B2, “Conjugates for treating diseases” (priority 2015, dated 2020).
“Also recorded” adds a separate entry of the source.

Tests used:
KB cells = assay: cells; assay type: cell-based, Human; conditions: 3 h
Procedure: METHOD. Inhibition of Cellular DNA Synthesis. The conjugates described herein were evaluated using an in vitro cytotoxicity assay that predicted the ability of the drug to inhibit the growth of the corresponding targeted cells, such as, but not limited to the following
It is to be understood that the choice of cell type can be made on the basis of the susceptibility of those selected cells to the drug that forms the conjugate, and the relative expression of the cell surface receptor or target antigen. The test conjugates were conjugates of a cell surface receptor or target antigen binding compound and PBD prodrugs, poly-PBD prodrugs, and mixed PBDs, as described herein. The test cells were exposed to varying concentrations of the conjugates, and optionally also in the absence or presence of at least a 100-fold excess of the unconjugated cell surface receptor or target antigen binding compound for competition studies to assess activity as being specific to the cell surface receptor or target antigen.
EXAMPLE. Conjugates of PBD prodrugs, poly-PBD prodrugs, and mixed PBDs described herein were active against KB cells. The activity was mediated by the folate receptor as indicated by competition experiments using co-administered folic acid. KB cells were exposed for up to 7 h at 37° C. to the indicated concentrations of folate-drug conjugate in the absence or presence of at least a 100-fold excess of folic acid. The cells were then rinsed once with fresh culture medium and incubated in fresh culture medium for 72 hours at 37° C. Cell viability was assessed using a ^3H-thymidine incorporation assay. For conjugates described herein, dose-dependent cytotoxicity was generally measurable, and in most cases, the IC50 values (concentration of drug conjugate required to reduce ^3H-thymidine incorporation into newly synthesized DNA by 50%) were in the low nanomolar range.

MDA-MB-231 tumors = assay: TNBC tumor assay (MDA-MB-231 xenograft); assay type: in vivo, nu/nu mice; conditions: 2 μmol/kg TIW for two weeks
Source text: General. […] A PR is observed where tumor volume, as defined herein, decreases from a previous high during the observation period, though regrowth may occur. A CR is observed where tumor volume, as defined herein, decreases to zero during the observation period, though regrowth may occur.
METHOD EXAMPLE. TNBC Tumor Assay. Triple negative breast cancer (TNBC) is a subtype characterized by lack of gene expression for estrogen, progesterone and Her2/neu. TNBC is difficult to treat, and the resulting death rate in patients is reportedly disproportionately higher than for any other subtype of breast cancer. A TNBC xenograft model was generated in an analogous way to the KB and M109 models described herein by implanting MDA-MB-231 breast cancer cells in nu/nu mice. […] Test animals (5/group) were injected intravenously, generally three times a week (TIW), for 2-3 weeks with varying doses, such as with 1 μmol/kg to 5 μmol/kg, of the drug delivery conjugate or with an equivalent dose volume of PBS (control), unless otherwise indicated. Dosing solutions were prepared fresh each day in PBS and administered through the lateral tail vein of the mice.

[1] = Toxicity as measured by weight loss (test animal total body weight); assay type: in vivo, mice; conditions: 2 μmol/kg TIW for two weeks
Procedure: METHOD. Toxicity as Measured by Weight Loss. The percentage weight change of the test animals was determined on selected days post-tumor inoculation (PTI), and during dosing. The results were graphed.

KB-CR2000 tumors = assay: Cisplatin therapy of cisplatin-resistant KB-CR2000 tumors; assay type: in vivo; conditions: high, toxic dose of cisplatin
Source text: METHOD. Human cisplatin-resistant cell line.

Compound | IC50 (KB cells) [nM] | MDA-MB-231 tumors compared to untreated control (MDA-MB-231 tumors) | complete response, number of test animals, MDA-MB-231 tumors (MDA-MB-231 tumors) | cure, number of test animals, MDA-MB-231 tumors (MDA-MB-231 tumors) | toxicity as evidenced by test animal total body weight ([1]; KB tumor study) | toxicity as evidenced by test animal total body weight ([1]; MDA-MB-231 tumor study) | tumor response to cisplatin therapy (KB-CR2000 tumors)
C=C1C[C@H]2C(=O)Nc3cc(OCCCCCOc4cc(N)c(C(=O)N5CC(=C)C[C@H]5C5OCCN5C(=O)OCCSSC[C@H](NC(=O)[C@H](CC(=O)O)NC(=O)[C@H](CC(=O)O)NC(=O)[C@H](CCCNC(=N)N)NC(=O)[C@H](CC(=O)O)NC(=O)CC[C@H](NC(=O)c5ccc(NCc6cnc7nc(N)[nH]c(=O)c7n6)cc5)C(=O)O)C(=O)O)cc4OC)c(OC)cc3C(=O)N2C1 (stereo partly drawn) [EC1744] | 1.2 | decreases MDA-MB-231 tumors; also recorded: decreased triple negative breast cancer (TNBC) MDA-MB-231 tumors | 5/5 | 4/5 | Toxicity was not observed | Toxicity was not observed | 
C=C1C[C@@H](C2OCCN2C(=O)OCCSSC[C@@H](NC(=O)[C@H](CCC(=O)NC[C@H](O)[C@@H](O)[C@H](O)[C@H](O)CO)NC(=O)[C@@H](CCC(=O)O)NC(=O)[C@H](CCC(=O)NC[C@H](O)[C@@H](O)[C@H](O)[C@H](O)CO)NC(=O)[C@@H](CCC(=O)O)NC(=O)[C@H](CCC(=O)NC[C@H](O)[C@@H](O)[C@H](O)[C@H](O)CO)NC(=O)CC[C@H](NC(=O)c2ccc(NCc3cnc4nc(N)[nH]c(=O)c4n3)cc2)C(=O)O)C(=O)O)N(C(=O)c2cc(OC)c(OCCCCCOc3cc(N)c(C(=O)N4CC(=C)C[C@H]4C4OCCN4C(=O)OCC4c5ccccc5-c5ccccc54)cc3OC)cc2N)C1 (stereo partly drawn) [EC1884] | 0.36 |  |  |  | Toxicity was not observed |  | 
N.N.[Cl][Pt][Cl] [cisplatin] |  |  |  |  |  |  | did not produce even a single partial response
